Measurements taken from patent USRE41151E1, “Protected forms of pharmacologically active agents and uses thereof” (Medinox, Inc., priority 2000, dated 2010).

How the values were obtained:
Sprague-Dawley rats = test: Rat carrageenan-induced hindlimb edema model, paw volume increase; format: in vivo; conditions: for paw volume increase, 4 Hours / paw volume increase, 5 Hours: one hour before carrageenan
Description: Efficacy of NSAIDs in acute inflammation can be estimated by using intraplanar injection of carrageenan in the rat. Sprague-Dawley rats (200-250 g male) are injected intradermally in the footpad with 50 μl of a 1% carrageenan solution in PBS. Swelling of the injected paw is measured 3 & 4 hours later, using a plethysmometer.

[1] = Plasma pharmacokinetics of naproxen after oral administration in rats; format: in vivo, rat; conditions: 2 mg/kg (amount of naproxen in dose)
Description: The carotid artery of Sprague-Dawley rat (250-350 g, male) was catheterized at least one day before drug administration and flushed with 30% polyvinyl pyrrolidone (PVP) (400 U/mL of heparin) to maintain patency. […] After centrifugation (13,000 rpm, 10 min, 4° C.), the plasma samples were collected and analyzed in the same day.
Aliquot of plasma sample (100 μL) was mixed with 200 μL of acetonitrile. After vortexing and centrifugation (13,000 rpm, 10 min, 4° C.), 200 μL of supernatant was removed and added to 300 μL of a 58:42 mixture of 50 mM phosphate buffer (pH 5.0) and acetonitrile. Following vortexing and centrifugation, 25 μL of supernatant was removed and analyzed by HPLC with a UV detection system.
The average plasma concentration at each time point was calculated and utilized in a pharmacokinetic analysis. Non-compartmental pharmacokinetic analysis was carried out using WinNolin (Pharsight, Mountainview, Calif.) to calculate the maximum concentration (Cmax), time to maximum concentration (Tmax), area under the curve from zero to the last time point (AUClast), the area under the curve from zero to infinite time (AUCinf), and the terminal phase half life (Beta-t1/2).

For `COc1ccc2cc([C@H](C)C(=O)O)ccc2c1` [Naproxen], the “paw volume increase, 4 Hours” value (Sprague-Dawley rats; naproxen 1 mg/kg oral) was 0.63 ± 0.07, the “paw volume increase, 5 Hours” value (Sprague-Dawley rats; naproxen 1 mg/kg oral) was 0.75 ± 0.08 and the “paw volume increase, 4 Hours” value (Sprague-Dawley rats; naproxen 10 mg/kg oral) was 0.32 ± 0.05. The “paw volume increase, 5 Hours” value (Sprague-Dawley rats; naproxen 10 mg/kg oral) was 0.39 ± 0.07, the reduction in swelling (Sprague-Dawley rats; oral 10 mg/kg one hour before carrageenan, at both time points) was “approximately 50%” and the AUFINF [1] was 55 ± 7 μg * ht/mL.
